Laboratory results: patent US4994439A, “Transmembrane formulations for drug administration” (California Biotechnology Inc., priority 1989, dated 1991)

Tests used:
[1] = Transport of insulin across rat nasal tissue (plasma insulin, delivery via the nares); type: in vivo; conditions: 5IU/kg insulin intranasal, FIG. 5
Description: Efficacy in transport of insulin and of human growth hormone across rat nasal tissue was evaluated. Male Sprague-Dawley rats (Simonsen, Gilroy, CA, 240-300 gm) were anesthetized by subcutaneous injection of Acepromazine (3 mg/kg) followed 10 minutes later by intraperitoneal injections of inactin (100 mg/kg) for experiments shown in FIGS. 4-6 or by intraperitoneal (IP) injection of sodium pentobarbital (65 mg/kg), with additional doses given intravenously as necessary for experiments shown in FIGS. 7-8. A trachea tube was inserted to assist breathing.
In FIGS. 4-6, insulin or hGH was delivered directly via the nares; no esophageal cannula was inserted; the test solution (50 ul) was delivered 1 cm into the nasal cavity using PE 10 tubing attached to a Hamilton syringe.
In all cases, blood samples (0.5 ml) were drawn from a catheter in the right jugular vein and diluted with heparinized saline. Plasma (300-400 ul) was separated and stored at 4° C. for less than 48 hours prior to analysis of growth hormone using an immunoradiometric assay (Tandem R, Hybritech, Inc, San Diego, Calif.) or of insulin using a radioimmunoassay (Micromedic, ICN Micromedic Systems, Horsham, Pa.). […] Estimations of area under the curve (AUC) of plots of plasma insulin or hGH concentration versus time were calculated using the trapezoidal rule.

[2] = Quasi-elastic light-scattering of micelles; type: physicochemical
Text: Solulan C-24 forms micelles with a radius of 75 angstroms; STDHF forms micelles with a radius of 17 angstroms, and the mixture (1:1 w/w) forms micelles with a radius of 40 angstroms.

[3] = Critical micellar concentration by rhodamine 6G method; type: physicochemical; conditions: for CMC expressed on a molar basis: for the mixture: total surfactant; for CMC (as percent w/v): rhodamine 6G method
Description: The CMC is not a single value, but a range of concentrations. Because the range is relatively narrow, a single concentration within this transition zone is defined as the CMC. The CMC for each individual molecule and for each mixture can be determined experimentally in variety of ways; that illustrated below is the rhodamine 6G method of Carey, M.C., et al J Colloid Interface Sci (1969) 31:382-396. In this method, a low concentration of rhodamine 6G is added as a probe in a series of dispersions or solutions of the material to be tested. Where the solute concentration is below the CMC the probe molecule has a lambdamax at 523 nm; above the CMC, the probe binds to the micelle, which causes the lambdamax to increase to approximately 532 nm. By plotting the wavelength of the maximum absorption of the rhodamine 6G probe as a function of concentration of test materials, two lines of differing slopes are obtained which intersect at the CMC. The value of the intersection is then taken as the value of the CMC for the particular dispersion.
When this procedure is conducted for solutions of STDHF, Solulan C-24, or a 1:1 mixture of these materials, the CMC values (as percent w/v) obtained are 0.14% for STDHF; 0.028% for Solulan C-24; and 0.012% for the mixture of the two--i.e., 0.006% STDHF plus 0.006% Solulan C-24. Thus, for the mixture of STDHF and Solulan C-24, the CMC for the mixture is lower than that for either component alone. These values establish minimum concentration levels needed for the invention composition, and also establish that the two components form mixed micelles. If there were two separate populations of micelles, the CMC as measured by the above-described method would be equal to that of Solulan C-24. The existence of mixed micelles can be verified with other data as described below.

red blood cells = assay: Red blood cell (RBC) lysis as a measure of toxicity; type: cell-based; conditions: FIG. 3
Description: Consistent results were obtained when red blood cell (RBC) lysis was evaluated as a measure of toxicity and SGDHF was used as the fusidate component. […] Thus, the addition of the detergent appears to protect against the lytic effect of the fusidate.

| Compound | time course of plasma insulin level [1] | micelle radius [2] | CMC expressed on a molar basis [3] | CMC (as percent w/v) [3] | RBC lysis (red blood cells; concentration range of 0-0.3%) | RBC lysis (red blood cells; 0.3% concentration) |
| --- | --- | --- | --- | --- | --- | --- |
| CC(=O)O[C@H]1C[C@@]2(C)[C@@H](C[C@@H](O)[C@H]3[C@@]4(C)CC[C@@H](O)[C@@H](C)[C@@H]4CC[C@@]32C)/C1=C(\CCCC(C)C)C(=O)NCCS(=O)(=O)[O-].[Na+] [STDHF, sodium tauro-24,25-dihydrofusidate] | lower levels | 17 angstroms | 2.0 mM | 0.14% |  |  |
| polyoxyethylene-24-cholesterol ether [Solulan C-24] | lower levels | 75 angstroms | 0.19 mM | 0.028% | low values of RBC lysis |  |
| sodium glyco-24,25-dihydrofusidate [SGDHF] |  |  |  |  |  | 100% |
